One data set has as its system protein TYRP1. Nature of the data set: Western blot of TYRP1 protein. It counts as cell-based, human. The note with it: MNT-1 cells, 50 nM mimetic, day 12. On the procedure:
(§1) 4×10^5 MNT-1 cells were seeded per well in a 6-well plate (#353046, Falcon) on day-1. On day 0, the cells were transfected with 50 nM of mimetic of the miRNAs (hsa-mir-137 # C-300604-07-005, hsa-mir-7 # C-300547-05-0005, hsa-mir-330-5p # C-301082-01-0005, negative control # NC-002000-01-05, Dharmacon), using 5 μL of Lipofectamine 2000 (#1668-019, Invitrogen). On day 1, the medium was changed. On day 3, the cells were trypsinized and seeded at 4×10^5 cells per well. On day 4, the cells were transfected again with 50 nM of mimetic of the miRNAs (see day 0). On day 5, the medium was changed. On day 7, the cells were trypsinized and seeded at 4×10^5 cells per well. On day 8, the cells were transfected with 50 nM of mimetic of the miRNAs (see day 0). On day 9, the medium was changed. On day 10, the cells were trypsinized and divided into two (from one by six wells to two by six wells). On day 12, one six-well plate was used for lysis of the RNA and the other for lysis of the proteins. As positive control of depigmentation, MNT-1 cells were incubated with 3.5 mM of kojic acid (Sigma K3125-5G) for 12 days. The cells were distributed as described and the kojic acid was renewed with the medium every 4 days. The percentage inhibition of the kojic acid is of the order of 10%. […] The concentration of proteins was determined with the BCA Protein Assay (ThermoFisher). […]
(In western blotting, separated proteins are transferred to a membrane and probed.)

The subject of a further data set is MLANA. Nature of the data set: Western blot of MLANA protein. Format: cell-based, human. The note with it: MNT-1 cells, 50 nM mimetic, day 12. As for the experimental part:
as §1

The subject of data set [1] is binding site of miR-330-5p in the 3'UTR of tyrosinase (TYR), WT. Nature of the data set: Luciferase reporter assay, wild-type (WT) TYR 3'UTR binding site. It counts as cell-based. Particulars: Lu1205 human melanoma cells, 50 nM mimetic co-transfected, relative to control without insert. The text has this:
(§2) The predicted binding site of miR-330-5p in the 3′UTR (position 68-75 of 3′UTR with total length of 393nt) of TYR (NM 000372) including the adjacent bases was designed using the following primers, and was cloned into the pmirGLO reporter vector (Promega) downstream of the region coding for firefly luciferase and using the Pmel and XbaI sites.
(§3) Ligation of the primers LL2086 (sense) and LL2087 (antisense) represents the wild-type (WT) TYR 3′UTR sequence, whereas ligation of the primers LL2088 (sense) and LL2089 (antisense) represents the mutated form of the binding site of the miR-330-Site 5p in the 3′UTR TYR region (MUT). All the constructs were confirmed by sequencing. On D0, 200,000 Lu1205 cells were seeded in 12-well plates. On D1, the Lu1205 cells were transfected with either 30 ng of pmirGLO empty vector (without insert), or 30 ng of WT construct, or 30 ng of MUT construct. At the same time, the cells were co-transfected with 50 nM of mimetic of miR-330-5p (Dharmacon) using Lipofectamine 2000 (Invitrogen). Forty-eight hours after transfection, the cells were collected and analyzed both with firefly luciferase and with Renilla luciferase (included in the pmirGLO vector) using the luciferase double assay (Promega) and a luminometer (Microlumatplus LB96V, Berthold Technologies). […] The relative luciferase activity was calculated, establishing the condition of non-insertion as 1.
(In a reporter assay the amount or activity of a reporter protein is the signal.)

Data set [2] has as its system mutated form of the binding site of miR-330-5p in the 3'UTR TYR region (MUT). Nature of the data set: Luciferase reporter assay, mutated (MUT) TYR 3'UTR binding site. Format: cell-based. The note with it: Lu1205 human melanoma cells, 50 nM mimetic co-transfected, relative to control without insert.
Excerpt: as §2, §3

As to “hsa-miR-137: mimetic of miRNA hsa-mir-137 (Dharmacon C-300604-07-005); mature sequence SEQ ID NO: 3 (UUAUUGCUUAAGAAUACGCGUAG; commercial mimic, chemistry not given here; listed as Homo sapiens)”, the “level of protein TYRP1 (Western blot)” value with protein TYRP1 is listed as “reduces the level of protein TYRP1 slightly”. The “level of protein MLANA (Western blot)” value with MLANA is “eliminates”.
For “hsa-miR-330-5p: mimetic of miRNA hsa-mir-330-5p (Dharmacon C-301082-01-0005); mature sequence 5'-UCUCUGGGCCUGUGUCUUAGGC-3' (SEQ ID NO: 1) (UCUCUGGGCCUGUGUCUUAGGC; mimic duplex, passenger strand not given here; listed as Homo sapiens)”, the “luciferase activity, WT construct” value in data set [1] is given as “considerably reduced”. Further, the “luciferase activity, MUT construct” value in data set [2] is “restoration of luciferase activity”.

The values are drawn from patent publication US9410152B2, “Use of microrna molecules to influence skin pigmentation” (CHANEL PARFUMS BEAUTE, priority 2011, dated 2016).
